Results on two molecules are retold here after patent US20090023759A1, “Quinazoline Derivatives as Inhibitors of EGF and/or erbB2 Receptor Tyrosine Kinase” (priority 2005, published 2009).

For one assay, the target named is T1, EGFR tyrosine kinase (Homo sapiens, UniProt P00533).
T1 construct: Recombinant intracellular fragments of EGFR, erbB2 and erbB4; made in house; host or cells: baculovirus/Sf21 insect cells (cleared lysate used)
Description: Test (a) protein tyrosine kinase phosphorylation assay, EGFR. The assay is classed as biochemical. Conditions: ATP at Km concentration; read-out: IC50 Test (a): Inhibition of EGFR tyrosine kinase protein phosphorylation. The protocol: (§1) a) Protein Tyrosine Kinase phosphorylation Assays
(§2) This test measures the ability of a test compound to inhibit the phosphorylation of a tyrosine containing polypeptide substrate by EGFR, erbB2 and erbB4 tyrosine kinase enzyme.
(§3) Recombinant intracellular fragments of EGFR, erbB2 and erbB4 (accession numbers X00588, X03363 and L07868 respectively) were cloned and expressed in the baculovirus/Sf21 system. […]
(§4) Constitutive kinase activity of these recombinant proteins was determined by their ability to phosphorylate a synthetic peptide (made up of a random co-polymer of Glutamic Acid, Alanine and Tyrosine in the ratio of 6:3:1). […]
(§5) The immobilised phospho-peptide product of the reaction was detected by immunological methods. […] After further washing, HRP activity in each well of the plate was measured colorimetrically using 22′-Azino-di-[3-ethylbenzthiazoline sulfonate (6)]diammonium salt crystals (ABTS™ from Roche) as a substrate.
(§6) Quantification of colour development and thus enzyme activity was achieved by the measurement of absorbance at 405 nm on a Molecular Devices ThermoMax microplate reader. Kinase inhibition for a given compound was expressed as an IC50 value. […] The range of phosphorylation was calculated from the positive (vehicle plus ATP) and negative (vehicle minus ATP) control values.

A further assay has as its target T2, erbB2 tyrosine kinase (Homo sapiens, UniProt P04626).
T2 construct: Recombinant intracellular fragments of EGFR, erbB2 and erbB4; made in house; host or cells: baculovirus/Sf21 insect cells (cleared lysate used)
Description: Test (a) protein tyrosine kinase phosphorylation assay, erbB2. It counts as biochemical. The settings on record: ATP at Km concentration; read-out: IC50 Test (a): Inhibition of erbB2 tyrosine kinase protein phosphorylation. As to the method:
as §1, §2, §3, §4, §5, §6

Assay [1] addresses T3, erbB2 in a MCF7 derived cell line (Clone 24 cells) (Homo sapiens, UniProt P04626).
T3 construct: a cell line that overexpresses full length wild type erbB2 protein; expressed in transfected cells
Put plainly: Test (c) Clone 24 phospho-erbB2 cell assay. The assay is classed as cell-based. Conditions: 4 hours with compound, read-out: IC50 Test (c): Inhibition of erbB2 tyrosine kinase protein phosphorylation. As to the method:
c) Clone 24 Phospho-erbB2 Cell Assay
This immunofluorescence end point assay measures the ability of a test compound to inhibit the phosphorylation of erbB2 in a MCF7 (breast carcinoma) derived cell line which was generated by transfecting MCF7 cells with the full length erbB2 gene using standard methods to give a cell line that overexpresses full length wild type erbB2 protein (hereinafter ‘Clone 24’ cells).
Clone 24 cells were cultured in Growth Medium (phenol red free Dulbecco's modified Eagle's medium (DMEM) containing 10% foetal bovine serum, 2 mM glutamine and 1.2 mg/ml G418) in a 7.5% CO2 air incubator at 37° C. […] Cell density was measured using a haemocytometer and viability was calculated using Trypan Blue solution before being further diluted in Growth Medium and seeded at a density of 1×10^4 cells per well (in 100 μl) into clear bottomed 96 well plates (Packard, No. 6005182). […]
Immunostaining was performed at room temperature. […] Plates were analysed within six hours of completing the immunostaining.
The Fluorescence signal is each well was measured using an Acumen Explorer Instrument (Acumen Bioscience Ltd.), a plate reader that can be used to rapidly quantitate features of images generated by laser-scanning. […]

T3 sequence (P04626 23-1255): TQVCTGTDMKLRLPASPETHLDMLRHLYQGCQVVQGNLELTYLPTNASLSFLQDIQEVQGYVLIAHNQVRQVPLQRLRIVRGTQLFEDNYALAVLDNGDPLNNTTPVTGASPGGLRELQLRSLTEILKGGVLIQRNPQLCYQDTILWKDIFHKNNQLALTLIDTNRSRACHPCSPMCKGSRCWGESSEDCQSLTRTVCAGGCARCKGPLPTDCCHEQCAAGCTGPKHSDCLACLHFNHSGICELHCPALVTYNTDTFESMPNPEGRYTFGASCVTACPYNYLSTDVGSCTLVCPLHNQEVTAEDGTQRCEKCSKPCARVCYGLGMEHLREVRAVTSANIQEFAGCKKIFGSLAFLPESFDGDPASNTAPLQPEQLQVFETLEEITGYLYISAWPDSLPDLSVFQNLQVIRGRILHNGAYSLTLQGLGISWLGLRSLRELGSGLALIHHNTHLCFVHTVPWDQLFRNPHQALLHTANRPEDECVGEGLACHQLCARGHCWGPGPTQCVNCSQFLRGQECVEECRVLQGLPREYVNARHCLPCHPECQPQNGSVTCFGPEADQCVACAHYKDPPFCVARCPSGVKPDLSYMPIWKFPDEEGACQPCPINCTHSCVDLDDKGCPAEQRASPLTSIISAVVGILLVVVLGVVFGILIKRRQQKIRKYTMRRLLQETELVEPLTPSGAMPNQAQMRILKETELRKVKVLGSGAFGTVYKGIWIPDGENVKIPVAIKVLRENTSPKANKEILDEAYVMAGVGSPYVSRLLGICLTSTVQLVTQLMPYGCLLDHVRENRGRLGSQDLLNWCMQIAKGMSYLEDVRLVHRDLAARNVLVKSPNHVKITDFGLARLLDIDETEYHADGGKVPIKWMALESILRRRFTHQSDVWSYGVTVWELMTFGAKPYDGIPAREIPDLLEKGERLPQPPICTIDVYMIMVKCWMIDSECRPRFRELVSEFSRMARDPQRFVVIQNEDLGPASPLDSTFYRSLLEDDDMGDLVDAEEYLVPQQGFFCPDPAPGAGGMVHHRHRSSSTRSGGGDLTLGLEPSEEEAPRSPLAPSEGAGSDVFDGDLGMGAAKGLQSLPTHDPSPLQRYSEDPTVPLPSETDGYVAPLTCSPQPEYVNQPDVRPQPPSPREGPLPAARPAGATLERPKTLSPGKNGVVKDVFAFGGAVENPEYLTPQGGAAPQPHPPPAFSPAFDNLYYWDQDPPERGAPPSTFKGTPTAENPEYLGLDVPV
T2 sequence (P04626 676-1255 limits assumed): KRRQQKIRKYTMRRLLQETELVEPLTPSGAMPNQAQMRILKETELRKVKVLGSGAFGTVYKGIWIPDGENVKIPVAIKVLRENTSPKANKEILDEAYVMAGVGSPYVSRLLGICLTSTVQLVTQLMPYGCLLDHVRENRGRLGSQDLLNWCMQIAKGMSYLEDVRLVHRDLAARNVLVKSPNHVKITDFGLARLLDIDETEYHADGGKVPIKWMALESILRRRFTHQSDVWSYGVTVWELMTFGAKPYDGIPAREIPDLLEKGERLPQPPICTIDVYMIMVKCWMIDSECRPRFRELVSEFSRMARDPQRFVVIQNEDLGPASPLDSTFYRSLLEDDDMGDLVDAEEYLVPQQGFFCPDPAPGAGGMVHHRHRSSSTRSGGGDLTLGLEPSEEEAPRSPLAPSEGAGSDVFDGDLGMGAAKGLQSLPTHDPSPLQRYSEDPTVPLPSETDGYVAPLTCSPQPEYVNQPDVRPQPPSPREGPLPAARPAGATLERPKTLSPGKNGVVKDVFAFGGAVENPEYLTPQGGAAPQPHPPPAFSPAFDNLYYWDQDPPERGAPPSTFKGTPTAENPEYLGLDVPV
T1 sequence (P00533 669-1210 limits assumed): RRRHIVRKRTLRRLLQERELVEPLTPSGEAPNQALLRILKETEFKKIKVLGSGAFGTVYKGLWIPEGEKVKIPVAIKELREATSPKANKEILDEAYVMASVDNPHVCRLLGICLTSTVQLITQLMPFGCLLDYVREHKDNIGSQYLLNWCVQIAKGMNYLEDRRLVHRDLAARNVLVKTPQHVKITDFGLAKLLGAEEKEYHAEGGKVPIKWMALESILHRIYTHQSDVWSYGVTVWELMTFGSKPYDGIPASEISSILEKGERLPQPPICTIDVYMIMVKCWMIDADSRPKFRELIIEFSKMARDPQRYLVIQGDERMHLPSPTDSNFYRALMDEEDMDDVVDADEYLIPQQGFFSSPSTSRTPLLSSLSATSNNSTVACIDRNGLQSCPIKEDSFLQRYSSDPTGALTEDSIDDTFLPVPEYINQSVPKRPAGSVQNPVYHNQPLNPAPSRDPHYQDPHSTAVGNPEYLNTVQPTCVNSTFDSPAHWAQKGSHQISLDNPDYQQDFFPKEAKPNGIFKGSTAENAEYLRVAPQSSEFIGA

Take `C[C@H](CN(C)C(=O)CO)Oc1cccc2ncnc(Nc3ccc4c(ccn4Cc4ccccn4)c3)c12` [Example 1, 2-Hydroxy-N-methyl-N-{(2R)-2-[(4-{[1-(pyridin-2-ylmethyl)-1H-indol-5-yl]amino}quinazolin-5-yl)oxy]propyl}acetamide]: the concentration for half-maximal inhibition (IC50) is 780 nM at EGFR tyrosine kinase, 71 nM on erbB2 tyrosine kinase and 1010 nM in assay [1].
As for `C[C@H](COc1cccc2ncnc(Nc3ccc4c(ccn4Cc4ccccn4)c3)c12)N(C)C(=O)CO` [Example 2, 2-Hydroxy-N-methyl-N-{(R)-1-methyl-2-[4-(1-pyridin-2-ylmethyl-1H-indol-5-ylamino)-quinazolin-5-yloxy]-ethyl}-acetamide], the figures for the IC50 (on EGFR tyrosine kinase; at erbB2 tyrosine kinase; in assay [1]) were 63 nM, 5 nM and 2 nM, respectively.

The IC50 is the concentration needed to halve the response being measured.
